Data: patent publication US9353075B2, “Disubstituted beta-lactones as inhibitors of N-acylethanolamine acid amidase (NAAA)” (The Regents of the University of California, priority 2011, dated 2016)
pIC50: −log10 of the molar value. “Also recorded” adds a separate entry of the source.

How the values were obtained:
[1] = Chemical stability in PBS buffer pH 7.4; format: physicochemical; conditions: phosphate-buffered saline, 0.01M PBS pH 7.4, 37° C., read-out: Stability in PBS buffer, pH 7.4 t1/2
Description: Chemical stability of select compounds was evaluated under physiological pH conditions (0.01M Phosphate-Buffered Saline, pH 7.4) for up to 24 h. Stock solutions of each compound (10 mM) were prepared freshly in DMSO. Each compound was incubated at a final concentration of 10 μM (1% DMSO) in pre-heated buffer (0.01M Phosphate-Buffered Saline (PBS), pH 7.4 at 37° C.). The sample solutions were divided into aliquots in glass vials (pre-heated at 37° C.) for each time point. The samples were maintained at 37° C. in the UPLC/MS Autosampler during the study (no shaking). A reference solution of each compound (final concentration: 10 μM at 1% DMSO) in pre-heated CH3CN (37° C.) was prepared from the stock solutions (10 mM in DMSO). The reference solutions were maintained at 37° C. in the UPLC/MS Autosampler during the study (no shaking). An internal standard (100 nM) was added to the sample and reference solutions. For each time point, the samples were analyzed directly by LC/MS without any further sample preparation. The samples were analyzed (triplicate injection) by monitoring the MS trace by Multiple Reaction Monitoring (MRM). The compound concentration (expressed as %) was calculated by dividing the peak area at each time point by the peak area at t=0 min. The reference solution was analyzed at the beginning (t=0 min.), and at the end of the study (t=24 h). The apparent half-lives (t1/2) of the disappearance of compound were calculated by a one-phase decay equation using a non-linear regression of compound concentration versus time.
The analyses were performed on a Waters ACQUITY UPLC/MS TQD system consisting of a TQD (Triple Quadropole Detector) Mass Spectrometer equipped with an Electrospray Ionization interface and a Photodiode Array Detector. The analyses were run on an ACQUITY UPLC BEH C18 1.7 μm 2.1×50 mm column with a VanGuard BEH C18 1.7 μm pre-column at 40° C. The mobile phase was 0.1% HCOOH in H2O (A) and 0.1% HCOOH in CH3CN (B) using a linear gradient: 0-0.2 min.: 5% B, 0.2-2.2 min.: 5-95% B, 2.2-2.3 min.: 95-5% B, 2.3-3 min.: 5% B with flow rate at 0.5 mL/min. […]

h-NAAA = h-NAAA (Homo sapiens (Human), UniProt Q02083); experiment: Fluorogenic h-NAAA assay; format: biochemical
Description: (§1) The assay was run in Optiplate 96-wells black plates, in a total reaction volume of 200 mL. NAAA protein preparations (4 ng) were pre-incubated for 10 minutes with various concentrations of test compounds or vehicle control (5% DMSO) in 100 mM citrate/phosphate buffer (pH 4.5) containing 3.0 mM DTT, 0.1% Triton X-100, 0.05% BSA, 150 mM NaCl. N-(4-methyl-2-oxo-chromen-7-yl)-hexadecanamide was used as a substrate (5.0 μM) and the reaction carried over for 30 minutes at 37° C. Fluorescence in the samples was quantified in a Perkin Elmer Envision plate reader using an excitation wavelength of 360 nm and emission 460 nm. IC50 values were calculated by non-linear regression analysis of log [concentration]/inhibition curves using GraphPad Prism 5 (GraphPad Software Inc., CA—USA) applying a standard slope curve fitting.
as §1, with “μL.” for “mL.”, “preparation (4.0 μg) was” for “preparations (4 ng) were”, “min” for “minutes”, “The” for “Fluorescence in the”, “were then read” for “was quantified”

DNFB-induced scratching = DNFB-induced scratching in mice; format: in vivo, mouse; conditions: topical, single dose
Description: The methods included the following. Dermatitis was produced in mice using 2-4 dinitrofluorobenzene (DNFB) as described by Buckley and Nijkamp (1994), Am J Respir Grit Care Med 149:400-7. Mice were sensitized on two consecutive days with a 0.5% DNFB solution applied to the shaved abdomen. At day 8, the ears were challenged with a 0.2% DNFB solution. Ear thickness was determined by using a micrometer. Scratching was evaluated as number of episodes per 60 minutes period. Data were analysed by ANOVA followed by the Bonferroni's test. See also Hargreaves K, et al (1988), Pain 32: 77-88 for related information.
The methods include the following. Itching in mice was induced with DNFB as previously described. Additional studies were done with 48/80 model (an inducer of mast cell degranulation). 48/80 was given subcutaneously (30 mg per kg). Data were analysed by ANOVA followed by Bonferroni's test for multiple comparisons.

[2] = test system: 48/80-induced scratching (mast cell degranulation); experiment: Compound 48/80-induced scratching in mice; format: in vivo, mouse; conditions: topical, single dose
Description: The methods include the following. Itching in mice was induced with DNFB as previously described. Additional studies were done with 48/80 model (an inducer of mast cell degranulation). 48/80 was given subcutaneously (30 mg per kg).

h-NAAA, sequence (Q02083 29-359): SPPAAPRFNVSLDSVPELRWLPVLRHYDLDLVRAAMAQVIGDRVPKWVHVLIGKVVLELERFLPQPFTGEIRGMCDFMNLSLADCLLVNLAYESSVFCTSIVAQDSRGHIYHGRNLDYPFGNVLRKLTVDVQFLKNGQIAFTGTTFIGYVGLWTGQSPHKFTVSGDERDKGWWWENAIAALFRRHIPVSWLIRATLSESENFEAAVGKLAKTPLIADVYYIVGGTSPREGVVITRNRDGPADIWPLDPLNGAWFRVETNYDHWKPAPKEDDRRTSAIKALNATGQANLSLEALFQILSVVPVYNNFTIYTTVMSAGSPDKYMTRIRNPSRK

half-life at 10 μM [1]: 1.7 h | pIC50 (h-NAAA): 7.85
SMILES: C[C@@H]1OC(=O)[C@@H]1NC(=O)OCCCCCc1ccccc1 [Example 6, 5-phenylpentyl-[(2S,3R)-2-methyl-4-oxooxetan-3-yl]-carbamate]
DNFB-induced scratching (DNFB-induced scratching): prevents DNFB-induced scratching; also recorded: prevented itching | Dose of full effect, DNFB-induced scratching (DNFB-induced scratching): 1-3% | Lowest effective dose, DNFB-induced scratching (DNFB-induced scratching): 0.001% | Dose of maximal effect, 48/80-induced scratching [2]: 1% | Lowest effective dose, 48/80-induced scratching [2]: 0.01% | 48/80-induced scratching ([2]; 48/80 30 mg per kg s.c.): prevents 48/80-induced scratching
